Laboratory results taken from ChEMBL document CHEMBL3988442, “University of Dundee, Small-Polar-MMV Screening Library” (2021).
Where “and” joins values, the source holds several entries; their conditions need not be identical. Equal values may be shown once.

Tests used:
[1] = biological target: T1, Tyrosyl-tRNA synthetase, putative (Trypanosoma cruzi (strain CL Brener), UniProt Q4DSP6); assay: Trypanosoma cruzi tyrosyl tRNA synthetase (TcYRS) SOP; assay type: functional
T1 sequence (Q4DSP6 whole entry): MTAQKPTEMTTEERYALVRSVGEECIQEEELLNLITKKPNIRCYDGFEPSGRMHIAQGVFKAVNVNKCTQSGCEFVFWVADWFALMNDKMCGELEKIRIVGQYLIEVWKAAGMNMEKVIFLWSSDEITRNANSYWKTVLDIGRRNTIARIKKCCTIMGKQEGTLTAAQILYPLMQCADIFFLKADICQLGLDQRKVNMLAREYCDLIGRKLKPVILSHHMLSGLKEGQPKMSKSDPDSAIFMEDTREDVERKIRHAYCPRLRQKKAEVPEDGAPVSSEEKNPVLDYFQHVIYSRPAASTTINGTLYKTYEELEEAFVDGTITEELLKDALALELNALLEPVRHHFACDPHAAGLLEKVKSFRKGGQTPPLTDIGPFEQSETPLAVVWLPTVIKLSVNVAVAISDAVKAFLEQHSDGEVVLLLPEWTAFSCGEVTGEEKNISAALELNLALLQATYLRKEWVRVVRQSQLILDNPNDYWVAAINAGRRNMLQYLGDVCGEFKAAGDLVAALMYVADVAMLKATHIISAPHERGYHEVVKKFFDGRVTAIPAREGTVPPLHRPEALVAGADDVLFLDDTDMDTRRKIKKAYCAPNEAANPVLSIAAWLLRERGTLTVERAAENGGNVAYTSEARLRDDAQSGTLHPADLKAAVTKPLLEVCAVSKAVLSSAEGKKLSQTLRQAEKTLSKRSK

[2] = biological target: T1, Tyrosyl-tRNA synthetase, putative; assay: Trypanosoma cruzi tyrosyl tRNA synthetase (TcYRS) _High Tyrosine SOP; assay type: functional
[3] = Trypanosoma cruzi proteasome luciferase counter-screen; assay type: functional, N/A
Proteasome subunit beta = biological target: T2, Proteasome subunit beta (Trypanosoma cruzi, UniProt O96673); assay: Trypanosoma cruzi proteasome chymotrypsin-like activity (TcProtChymo) assay.; assay type: functional
T2 sequence (O96673 whole entry): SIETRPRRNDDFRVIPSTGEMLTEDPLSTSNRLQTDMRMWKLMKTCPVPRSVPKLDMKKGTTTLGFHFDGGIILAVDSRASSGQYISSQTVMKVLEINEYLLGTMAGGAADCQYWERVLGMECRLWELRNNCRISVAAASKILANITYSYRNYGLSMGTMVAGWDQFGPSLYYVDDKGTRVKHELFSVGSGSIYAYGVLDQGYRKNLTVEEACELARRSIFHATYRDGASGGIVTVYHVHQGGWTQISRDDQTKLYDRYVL

[4] = To identify inhibition of the IFN signalling (Jak-Stat) pathway via expression of an eGFP reporter gene under the control of an IFN-stimulated response element (ISRE) containing MxA promoter.; assay type: functional, Homo sapiens
Shiga toxin 2 = biological target: T3, Shiga toxin 2 (Escherichia coli O157:H7, UniProt P09385+P09386); assay: E. coli 0.157:H7 Shiga Toxin SOP - stx2 screening assay; assay type: functional
T3 sequence (P09385 whole entry): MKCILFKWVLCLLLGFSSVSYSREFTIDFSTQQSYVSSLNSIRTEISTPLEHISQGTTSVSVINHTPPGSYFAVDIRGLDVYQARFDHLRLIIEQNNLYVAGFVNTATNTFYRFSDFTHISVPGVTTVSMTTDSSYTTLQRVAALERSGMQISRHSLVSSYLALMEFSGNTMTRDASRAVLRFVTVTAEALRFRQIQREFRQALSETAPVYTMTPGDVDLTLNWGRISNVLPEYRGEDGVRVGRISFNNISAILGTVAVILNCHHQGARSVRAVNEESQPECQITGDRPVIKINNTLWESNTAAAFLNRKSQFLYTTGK
T3 sequence (P09386 whole entry): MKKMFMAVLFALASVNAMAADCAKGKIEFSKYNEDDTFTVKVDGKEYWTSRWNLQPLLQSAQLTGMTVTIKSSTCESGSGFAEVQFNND

[5] = In vitro enzyme assay to detect hydrolysis of chlorophenol red-beta-D-[…] directly proportional to the number of Toxoplasma stably expressing beta-galactosidase; assay type: functional, organism-based, Toxoplasma gondii; settings: Toxoplasma gondii
[6] = microbe, parasite or virus in culture; settings: Mycobacterium tuberculosis, 72 h, read-out: pIC50 (converted)
[7] = microbe, parasite or virus in culture; settings: Mycobacterium tuberculosis, 96 h, read-out: pIC50 (converted)
[8] = biological target: T4, Aspartate--tRNA(Asp/Asn) ligase (Mycobacterium tuberculosis (strain ATCC 25618 / H37Rv), UniProt P9WFW3); assay: Assay for Asp RNA synthetase-1 from Mycobacterium tuberculosis; assay type: functional
T4 sequence (P9WFW3 whole entry): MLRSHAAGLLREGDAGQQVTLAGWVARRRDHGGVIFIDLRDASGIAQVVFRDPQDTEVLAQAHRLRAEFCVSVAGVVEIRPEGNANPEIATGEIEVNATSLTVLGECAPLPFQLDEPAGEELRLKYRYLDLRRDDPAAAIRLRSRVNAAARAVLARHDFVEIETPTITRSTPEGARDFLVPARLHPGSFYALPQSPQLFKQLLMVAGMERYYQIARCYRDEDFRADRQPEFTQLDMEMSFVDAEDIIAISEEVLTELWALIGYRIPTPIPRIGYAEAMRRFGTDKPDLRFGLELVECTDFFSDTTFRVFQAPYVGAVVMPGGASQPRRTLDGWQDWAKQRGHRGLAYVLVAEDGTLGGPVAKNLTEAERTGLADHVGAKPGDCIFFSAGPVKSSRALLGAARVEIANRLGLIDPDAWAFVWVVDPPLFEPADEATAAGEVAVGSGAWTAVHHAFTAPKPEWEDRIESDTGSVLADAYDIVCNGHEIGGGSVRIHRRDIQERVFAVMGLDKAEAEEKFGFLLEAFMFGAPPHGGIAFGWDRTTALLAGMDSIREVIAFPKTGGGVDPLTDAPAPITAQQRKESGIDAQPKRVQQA

Histidine--tRNA ligase = biological target: T5, Histidine--tRNA ligase (Leishmania infantum, UniProt A4I591); assay: Leishmania infantum Histidine tRNA synthetase (LdHisRS); assay type: functional
T5 sequence (A4I591 whole entry): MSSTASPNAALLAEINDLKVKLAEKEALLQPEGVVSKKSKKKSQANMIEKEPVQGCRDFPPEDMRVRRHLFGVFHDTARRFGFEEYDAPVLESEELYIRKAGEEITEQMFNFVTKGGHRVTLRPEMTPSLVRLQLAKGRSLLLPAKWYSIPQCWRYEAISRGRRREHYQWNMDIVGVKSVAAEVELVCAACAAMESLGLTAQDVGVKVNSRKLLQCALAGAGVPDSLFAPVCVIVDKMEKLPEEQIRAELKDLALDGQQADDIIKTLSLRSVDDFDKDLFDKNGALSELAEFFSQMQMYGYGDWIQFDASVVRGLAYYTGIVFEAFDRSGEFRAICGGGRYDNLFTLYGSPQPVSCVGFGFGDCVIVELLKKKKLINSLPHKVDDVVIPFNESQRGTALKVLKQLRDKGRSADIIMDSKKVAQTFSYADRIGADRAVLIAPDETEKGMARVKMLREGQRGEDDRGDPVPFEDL

Lysine--tRNA ligase = Lysine--tRNA ligase (Plasmodium falciparum (isolate 3D7), UniProt Q8IDJ8); assay: Pf-KRS-1 (Lysyl-RNA Synthetase-1, KRS-1, cytosolic KRS) from Plasmodium falciparum. Inhibitor assay, 384 well plate, luminescence read.; assay type: functional
Lysine--tRNA ligase, sequence (Q8IDJ8 whole entry): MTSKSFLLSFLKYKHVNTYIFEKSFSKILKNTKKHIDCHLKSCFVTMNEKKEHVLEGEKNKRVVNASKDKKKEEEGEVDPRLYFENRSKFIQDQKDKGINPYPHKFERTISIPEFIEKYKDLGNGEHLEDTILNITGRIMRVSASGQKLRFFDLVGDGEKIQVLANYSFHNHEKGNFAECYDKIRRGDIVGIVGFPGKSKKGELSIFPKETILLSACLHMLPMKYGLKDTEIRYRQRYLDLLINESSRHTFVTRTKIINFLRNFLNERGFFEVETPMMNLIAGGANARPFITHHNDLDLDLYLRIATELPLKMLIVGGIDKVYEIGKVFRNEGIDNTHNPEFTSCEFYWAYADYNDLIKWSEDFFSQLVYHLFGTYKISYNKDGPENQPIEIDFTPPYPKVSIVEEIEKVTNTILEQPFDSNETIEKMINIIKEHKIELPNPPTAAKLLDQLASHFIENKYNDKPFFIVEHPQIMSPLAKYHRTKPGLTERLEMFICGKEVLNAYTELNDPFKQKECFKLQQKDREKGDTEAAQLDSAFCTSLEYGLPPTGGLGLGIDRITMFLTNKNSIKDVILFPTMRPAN

Leishmania donovani = assay: Leishmania intramacrophage assay; assay type: functional, organism-based; settings: Leishmania donovani
Schistosoma mansoni = assay: High throughput screening of compounds against Schistosoma mansoni motility; assay type: functional; set-up: dose or concentration left out as unconfirmed

Question: What does the source list for `Cc1cc(C)n(C2CN(CC(=O)N(C)Cc3ccc(C)o3)C2)n1`?
Answer: IC50 [1]: 75.8 µM and 72.1 µM; IC50 [2]: 79.3 µM and 74.7 µM

Question: For `CN1CCc2nc(C3CCN(C(=O)CCC4CCCC4)CC3)ncc2C1`, which pIC50 [3] is on record?
Answer: The pIC50 was less than 4.

Question: And the IC50 (Proteasome subunit beta)?
Answer: Its IC50 is greater than 100 µM.

Question: What about the IC50 [1] of the same compound?
Answer: The IC50 was 46.4 µM and 43.1 µM.

Question: And the IC50 [2]?
Answer: The IC50 was 45.5 µM and 43.7 µM.

Question: Which pIC50 [4] does the source give for `N#Cc1ccc(NCCNc2ccc(C(F)(F)F)cn2)nc1` here?
Answer: Its pIC50 is 5.715.

Question: What about the IC50 (Shiga toxin 2) of the same compound?
Answer: The IC50 was greater than 100 µM.

Question: And the IC50 [5]?
Answer: Its IC50 is 22.7 µM.

Question: With `Cc1noc(NC(=O)c2ccc(OC(F)(F)F)cc2)n1` as the compound, how does the IC50 [6] read?
Answer: The IC50 was 20 µM.

Question: What about the IC50 [7] of the same compound?
Answer: Its IC50 is 36.6 µM.

Question: What about the pIC50 [3] of the same compound?
Answer: Its pIC50 is 5.158 and 4.98.

Question: And the IC50 (Proteasome subunit beta)?
Answer: The IC50 was 4.36 µM and 4.71 µM.

Question: And the pIC50 [4]?
Answer: The pIC50 was 5.092.

Question: What about the IC50 (Shiga toxin 2) of the same compound?
Answer: The IC50 was greater than 100 µM.

Question: And the IC50 [5]?
Answer: Its IC50 is 4.96 µM.

Question: Which results are given for `Cn1nc2c(cc1=O)CN(Cc1nc(C(C)(C)C)no1)CC2`?
Answer: IC50 [8]: > 100 µM; IC50 (Histidine--tRNA ligase): 25.4 µM and 17.9 µM; IC50 (Lysine--tRNA ligase): > 50.1 µM

Question: Which results are given for `CC(=O)N1CCN(c2ccc3ccc(C(=O)NC4CCCC4)cn23)CC1`?
Answer: IC50 [1]: > 100 µM; IC50 [2]: 41.1 µM and > 100 µM

Question: Which IC50 [8] does the source give for `CCn1nc2c(cc1=O)CN(Cc1nc(-c3ccccn3)no1)CC2` here?
Answer: Its IC50 is greater than 100 µM.

Question: What about the IC50 (Histidine--tRNA ligase) of the same compound?
Answer: The IC50 was 40 µM and 50.3 µM.

Question: What about the IC50 (Lysine--tRNA ligase) of the same compound?
Answer: Its IC50 is greater than 50.1 µM.

Question: Which IC50 (Leishmania donovani) does the source give for `O=C(NC1CC1)c1ccc2ccc(N3CCN(CC4CC4)CC3)n2c1` here?
Answer: Its IC50 is greater than 50.1 µM.

Question: What about the IC50 [1] of the same compound?
Answer: The IC50 was greater than 100 µM.

Question: What about the IC50 [2] of the same compound?
Answer: Its IC50 is 41.1 µM and > 100 µM.

Question: For `O=C(NCc1ccccc1)N1CCC2(CC(=O)N(c3ccsc3)C2)C1` (stereo not given), which IC50 [1] is on record?
Answer: The IC50 was greater than 100 µM.

Question: What about the IC50 [2] of the same compound?
Answer: The IC50 was greater than 100 µM.

Question: Which IC50 [8] does the source give for `Cn1nc2c(cc1=O)CN(CC(=O)Nc1ccc(Cl)cn1)CC2` here?
Answer: The IC50 was 90 µM and > 100 µM.

Question: What about the IC50 (Histidine--tRNA ligase) of the same compound?
Answer: Its IC50 is 19 µM and 22.2 µM.

Question: And the “Percent Effect” value (Schistosoma mansoni)?
Answer: Its value is -19.3%.

Question: For `CC(C)NC(=O)N1CCN(CC2CC2)CC2(CC(=O)N(C)C2)C1` (stereo not given), which IC50 [1] is on record?
Answer: The IC50 was greater than 100 µM.

Question: And the IC50 [2]?
Answer: The IC50 was greater than 100 µM.

Question: For `NC[C@H]1CC[C@H](C(NC(=O)c2cccc(F)c2)c2ccccn2)CC1` (stereo not given in full), which IC50 [1] is on record?
Answer: Its IC50 is 76 µM and > 100 µM.

Question: What about the IC50 [2] of the same compound?
Answer: Its IC50 is > 100 µM and 87.7 µM.

Question: What about the IC50 (Histidine--tRNA ligase) of the same compound?
Answer: Its IC50 is 51 µM and 44.2 µM.

Question: Which IC50 [1] does the source give for `Fc1cccc(Oc2ccc(CNCC3CNc4ccnn4C3)cn2)c1` (stereo not given) here?
Answer: The IC50 was greater than 100 µM.

Question: What about the IC50 [2] of the same compound?
Answer: Its IC50 is greater than 100 µM.

Question: And the IC50 (Histidine--tRNA ligase)?
Answer: The IC50 was greater than 100 µM.
